Structures are written as SMILES. Active and inactive are the calls of the source. Bounds are passed on as bounds.

One assay has as its system INS1. Briefly: INS-1E survival protection against cytokine death – cell-based, luminescence, retest, dose response (AID 449756).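 Further: cell death triggered by IL-1 beta plus TNF-alpha plus IFN-gamma mixture; protective hits raise ATP signal compared with cytokine alone wells.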 In kind it is functional. Conditions: Rattus norvegicus.
Assay [1] concerns the target T1, Microphthalmia-associated transcription factor (Homo sapiens, UniProt O75030).
T1 sequence (O75030 whole entry): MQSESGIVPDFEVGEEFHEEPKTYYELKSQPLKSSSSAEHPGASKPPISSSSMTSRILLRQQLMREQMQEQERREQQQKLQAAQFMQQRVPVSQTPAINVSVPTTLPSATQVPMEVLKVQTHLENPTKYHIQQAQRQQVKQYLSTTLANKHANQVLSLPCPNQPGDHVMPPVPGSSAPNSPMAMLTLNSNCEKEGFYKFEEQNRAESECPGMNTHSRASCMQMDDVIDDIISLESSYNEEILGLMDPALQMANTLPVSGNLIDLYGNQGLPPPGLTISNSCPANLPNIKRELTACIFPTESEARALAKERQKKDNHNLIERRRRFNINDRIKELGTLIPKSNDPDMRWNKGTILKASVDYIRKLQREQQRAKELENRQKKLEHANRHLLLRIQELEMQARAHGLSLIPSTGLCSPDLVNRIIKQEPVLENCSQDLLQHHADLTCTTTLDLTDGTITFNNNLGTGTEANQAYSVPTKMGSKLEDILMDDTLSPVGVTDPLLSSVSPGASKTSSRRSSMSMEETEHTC
Briefly: reducers of TRPM1 reporter luminescence, concentration series – cell-based, SK-MEL-5, cherry-picked, set 3, MITF inhibitor project, dose response (AID 493073).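 Further: SK-MEL-5 melanoma cells with luciferase driven by the MITF target TRPM1 promoter.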 It is filed as functional.

For a further assay, the target named is Melanocortin receptor 4 (Homo sapiens, UniProt P32245). In kind it is functional, cell-based.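 Further: Cell-based assay with luminescence read-out, confirmatory dose-response testing for agonist activity of biased ligands at MC4R; human U2OS cells with tagged receptor and beta-arrestin; potency of agonists that increase receptor coupling to beta-arrestin.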
Assay [2] can be described thus: fluconazole-exposed Candida albicans growth modulators – fluorescence, retest, confirmation (AID 2467). It is filed as functional, cell-based.
Assay [3] is described as follows: NIH-3T3 fibroblast cytotoxicity, dose response, cytotoxicity control, cell-based, fluorescence, Alamar Blue, secondary assay (AID 2327).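 Further: NIH-3T3 mouse fibroblasts cultured with fluconazole at 8 µg/mL.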 In kind it is functional. On the technique in general: Alamar Blue is a resazurin reagent that responds to reducing activity.
The nature of assay [4]: viability loss in HeLa cells – cytotoxicity control for MgcRacGAP inhibitor project, dose response (AID 624300). It is filed as functional.
The target in assay [5] is T2, Rac GTPase-activating protein 1 (Homo sapiens, UniProt Q9H0H5).
T2 sequence (Q9H0H5 whole entry): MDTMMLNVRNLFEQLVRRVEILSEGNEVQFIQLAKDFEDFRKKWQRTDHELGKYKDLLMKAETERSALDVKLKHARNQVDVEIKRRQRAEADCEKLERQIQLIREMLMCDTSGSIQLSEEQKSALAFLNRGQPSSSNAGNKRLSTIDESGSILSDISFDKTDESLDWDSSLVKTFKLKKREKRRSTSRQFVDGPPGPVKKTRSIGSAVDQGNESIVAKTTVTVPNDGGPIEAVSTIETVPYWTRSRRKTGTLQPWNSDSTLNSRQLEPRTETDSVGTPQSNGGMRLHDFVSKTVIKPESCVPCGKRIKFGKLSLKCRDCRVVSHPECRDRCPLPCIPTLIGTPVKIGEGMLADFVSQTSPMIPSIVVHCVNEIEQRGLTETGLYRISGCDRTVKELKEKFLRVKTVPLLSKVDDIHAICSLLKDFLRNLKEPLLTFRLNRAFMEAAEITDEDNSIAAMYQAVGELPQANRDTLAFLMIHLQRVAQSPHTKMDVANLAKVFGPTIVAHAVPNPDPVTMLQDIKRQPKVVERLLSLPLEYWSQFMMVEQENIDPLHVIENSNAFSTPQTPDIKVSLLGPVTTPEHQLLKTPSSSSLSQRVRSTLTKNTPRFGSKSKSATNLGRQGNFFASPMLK
Briefly: blockers of MgcRacGAP-driven Rac1 GTP hydrolysis – biochemical, ADP Hunter fluorescence, primary and confirmatory, confirmation (AID 624330). It is filed as functional.

Assay [6] addresses 26S proteasome non-ATPase regulatory subunit 14 (Homo sapiens, UniProt O00487). Briefly: inhibition of proteasome subunit RPN11 – biochemical, fluorescence polarization, uHTS hits, confirmation (AID 602368). It is filed as functional. Background: Polarisation of emitted light reports the rotation of a fluorescent probe.
Assay [7] deals with 72 kDa type IV collagenase (Homo sapiens, UniProt P08253). As to the kind of experiment: Dose Response validation of uHTS RPN11 inhibitor hits using a MMP-2 Fluorescence assay. It is filed as functional.
The target in the next assay is Prothrombin (Bos taurus, UniProt P00735). As to the kind of experiment: thrombin protease inhibitors – biochemical, fluorescence polarization, uHTS hits, dose response (AID 602369). In kind it is functional.
Assay [8] has as its target T3, Endoribonuclease toxin MazF (Escherichia coli K-12, UniProt P0AE70).
T3 sequence (P0AE70 whole entry): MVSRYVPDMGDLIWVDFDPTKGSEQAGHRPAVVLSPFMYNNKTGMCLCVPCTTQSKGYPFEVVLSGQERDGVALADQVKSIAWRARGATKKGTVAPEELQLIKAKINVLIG
Briefly: activation of MazEF endoribonuclease cleavage – biochemical, fluorescence, single-stranded RNA substrate, uHTS hits, dose response (AID 588481). In kind it is functional.

Assay [9] deals with T4, Zinc finger protein mex-5 (Caenorhabditis elegans, UniProt Q9XUB2).
T4 sequence (Q9XUB2 whole entry): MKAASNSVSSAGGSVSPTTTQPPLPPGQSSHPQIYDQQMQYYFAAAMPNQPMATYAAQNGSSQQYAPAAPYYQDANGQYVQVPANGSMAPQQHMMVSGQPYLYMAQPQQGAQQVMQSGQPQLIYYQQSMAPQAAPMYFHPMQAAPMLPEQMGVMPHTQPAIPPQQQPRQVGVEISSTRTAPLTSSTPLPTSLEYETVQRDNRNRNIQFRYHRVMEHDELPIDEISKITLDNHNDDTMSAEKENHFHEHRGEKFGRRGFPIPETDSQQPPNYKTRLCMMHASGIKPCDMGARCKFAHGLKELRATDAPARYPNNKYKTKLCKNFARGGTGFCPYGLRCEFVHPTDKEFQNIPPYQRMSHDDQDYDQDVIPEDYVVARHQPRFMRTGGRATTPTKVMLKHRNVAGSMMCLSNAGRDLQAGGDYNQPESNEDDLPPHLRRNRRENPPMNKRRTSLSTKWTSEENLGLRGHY
Briefly: potency of MEX-5 RNA-binding blockers – biochemical, C. elegans, fluorescence polarization, dose response (AID 1960).

The target in assay [10] is T5, RNA-binding protein pos-1 (Caenorhabditis elegans, UniProt G5EF15).
T5 sequence (G5EF15 whole entry): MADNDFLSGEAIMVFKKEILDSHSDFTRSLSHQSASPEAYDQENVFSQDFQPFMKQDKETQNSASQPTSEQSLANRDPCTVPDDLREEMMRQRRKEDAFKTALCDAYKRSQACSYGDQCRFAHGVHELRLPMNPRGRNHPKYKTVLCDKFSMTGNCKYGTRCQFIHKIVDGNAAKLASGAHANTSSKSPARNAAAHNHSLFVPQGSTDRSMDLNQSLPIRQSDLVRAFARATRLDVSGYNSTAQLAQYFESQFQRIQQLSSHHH
Briefly: disruptors of C. elegans POS-1 RNA interaction – biochemical, fluorescence polarization, dose response (AID 1964).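 Further: purified POS-1 fused to maltose binding protein made in E. coli; potency of compounds blocking POS-1 binding to fluorescent RNA.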

The target of assay [11] is T3, Endoribonuclease toxin MazF. Briefly: substrate-only fluorescence increase artefacts – biochemical, single-stranded RNase substrate, counter-screen for MazEF activator project, dose response (AID 588502). It is filed as functional. For orientation: Counterscreens check selectivity or assay interference.
The next assay deals with H9c2. Briefly: cells. It is filed as functional, cell-based. Conditions: Rattus norvegicus, H9c2, Myocardium.
In the next assay the target is T6, Protein skinhead-1 (Caenorhabditis elegans, UniProt P34707).
T6 sequence (P34707 whole entry): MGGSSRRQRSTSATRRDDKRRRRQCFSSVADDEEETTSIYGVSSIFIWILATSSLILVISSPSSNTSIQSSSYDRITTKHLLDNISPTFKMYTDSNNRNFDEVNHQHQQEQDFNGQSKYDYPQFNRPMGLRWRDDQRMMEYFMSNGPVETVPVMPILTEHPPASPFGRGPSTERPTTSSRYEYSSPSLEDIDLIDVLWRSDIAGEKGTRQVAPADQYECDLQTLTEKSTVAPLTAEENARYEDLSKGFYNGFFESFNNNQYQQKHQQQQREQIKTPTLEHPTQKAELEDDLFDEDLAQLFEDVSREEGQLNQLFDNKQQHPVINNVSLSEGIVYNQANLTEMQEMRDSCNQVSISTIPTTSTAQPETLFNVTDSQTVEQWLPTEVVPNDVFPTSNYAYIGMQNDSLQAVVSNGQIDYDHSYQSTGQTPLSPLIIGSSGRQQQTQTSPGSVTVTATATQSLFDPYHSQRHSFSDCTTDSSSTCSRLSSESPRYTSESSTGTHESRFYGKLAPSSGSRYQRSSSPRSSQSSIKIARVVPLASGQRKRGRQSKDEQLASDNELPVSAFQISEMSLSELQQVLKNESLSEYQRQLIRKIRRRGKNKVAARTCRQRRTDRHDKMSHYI
In kind it is functional.

Assay [12] has as its target T7, Mannose-6-phosphate isomerase (Homo sapiens, UniProt P34949).
T7 sequence (P34949 whole entry): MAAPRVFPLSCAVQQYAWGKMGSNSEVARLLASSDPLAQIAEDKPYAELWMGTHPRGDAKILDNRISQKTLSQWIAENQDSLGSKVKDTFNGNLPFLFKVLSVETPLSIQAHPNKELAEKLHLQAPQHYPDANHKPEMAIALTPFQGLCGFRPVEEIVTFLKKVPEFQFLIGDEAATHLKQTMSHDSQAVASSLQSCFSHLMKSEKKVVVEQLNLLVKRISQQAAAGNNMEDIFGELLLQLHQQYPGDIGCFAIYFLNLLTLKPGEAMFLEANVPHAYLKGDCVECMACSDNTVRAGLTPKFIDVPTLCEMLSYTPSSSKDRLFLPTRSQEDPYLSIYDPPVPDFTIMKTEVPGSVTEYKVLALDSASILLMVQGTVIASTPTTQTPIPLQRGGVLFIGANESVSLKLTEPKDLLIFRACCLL
As to the kind of experiment: MPI inhibition at elevated mannose 6-phosphate – biochemical, fluorescence intensity, high mannose 6-phosphate, primary screen (AID 1220).

Sequence of 72 kDa type IV collagenase (P08253 whole entry): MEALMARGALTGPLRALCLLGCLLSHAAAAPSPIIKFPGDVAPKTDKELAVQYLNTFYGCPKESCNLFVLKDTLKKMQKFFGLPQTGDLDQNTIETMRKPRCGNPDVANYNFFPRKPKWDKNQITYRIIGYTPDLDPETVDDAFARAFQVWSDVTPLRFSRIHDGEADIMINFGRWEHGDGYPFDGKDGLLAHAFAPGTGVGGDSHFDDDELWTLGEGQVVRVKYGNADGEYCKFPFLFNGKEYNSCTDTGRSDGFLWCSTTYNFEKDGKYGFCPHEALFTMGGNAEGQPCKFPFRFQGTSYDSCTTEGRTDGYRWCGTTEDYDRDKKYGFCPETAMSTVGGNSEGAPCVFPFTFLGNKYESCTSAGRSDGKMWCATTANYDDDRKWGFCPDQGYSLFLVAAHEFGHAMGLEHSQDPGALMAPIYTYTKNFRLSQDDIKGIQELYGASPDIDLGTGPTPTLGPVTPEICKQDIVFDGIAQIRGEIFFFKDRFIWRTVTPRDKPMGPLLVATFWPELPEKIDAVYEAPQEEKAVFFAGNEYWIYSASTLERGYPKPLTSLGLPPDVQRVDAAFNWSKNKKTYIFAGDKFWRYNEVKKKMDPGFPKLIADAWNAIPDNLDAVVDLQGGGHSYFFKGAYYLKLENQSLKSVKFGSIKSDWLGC
Sequence of Melanocortin receptor 4 (P32245 whole entry): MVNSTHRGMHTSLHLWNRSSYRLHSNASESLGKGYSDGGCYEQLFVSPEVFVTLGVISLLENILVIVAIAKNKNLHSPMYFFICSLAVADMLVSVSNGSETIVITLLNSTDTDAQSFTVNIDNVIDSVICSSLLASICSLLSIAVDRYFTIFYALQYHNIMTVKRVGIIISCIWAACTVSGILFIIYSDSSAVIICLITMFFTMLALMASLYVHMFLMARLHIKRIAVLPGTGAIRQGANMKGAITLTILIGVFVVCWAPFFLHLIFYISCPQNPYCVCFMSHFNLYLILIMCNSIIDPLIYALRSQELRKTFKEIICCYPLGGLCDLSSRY
Sequence of 26S proteasome non-ATPase regulatory subunit 14 (O00487 whole entry): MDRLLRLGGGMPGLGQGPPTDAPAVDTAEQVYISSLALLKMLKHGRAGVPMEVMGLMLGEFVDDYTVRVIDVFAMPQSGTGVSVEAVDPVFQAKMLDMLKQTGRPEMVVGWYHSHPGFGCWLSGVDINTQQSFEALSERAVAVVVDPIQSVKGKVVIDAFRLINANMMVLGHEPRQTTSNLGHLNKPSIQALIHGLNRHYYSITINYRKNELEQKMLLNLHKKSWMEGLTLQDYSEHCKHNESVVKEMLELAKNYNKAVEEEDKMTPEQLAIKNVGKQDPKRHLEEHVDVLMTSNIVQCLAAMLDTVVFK

As a reminder, the AC50 is the midpoint of the concentration-response curve, whichever way the signal moves. A word on the EC50: it is the concentration that produces a half-maximal response. Consider `CC1CCC(C(C)C)C(OC(=O)C[n+]2cc(-c3ccc(Cl)cc3)n3c2CCCCC3)C1` (configuration not stated), for which the AC50 in the assay with INS1 is 4.91 µM (active); in assay [1], 6.97 µM (active). The figures for the half-maximal effective concentration (EC50) (on Melanocortin receptor 4; in [2]; in [3]) were > 9.91 µM (active), 459 nM (active) and > 160 µM (inactive), respectively.
As a reminder, the CC50 is the concentration giving 50% cytotoxicity. What is called IC50 is the concentration that gives 50% inhibition. With `CN(C)c1ccc(Sc2ccc3nc(N)nc(N)c3c2)cc1`, the half-maximal cytotoxic concentration (CC50) in assay [4] was 100 µM (active). Further, the 50% inhibitory concentration (IC50) in assay [5] is 50.2 µM (active).
`Cc1ccccc1C(=O)/C=C1/SCC(=O)N1C`: the IC50 in [6] was 18.9 µM (active); in assay [7], > 100 µM (inactive); at Prothrombin it was 37.3 µM (active).
On to `Oc1nc2ccccc2nc1/C=C/c1ccc(F)cc1`, for which the concentration giving a half-maximal response (EC50) in [8] was 15.6 µM (active); in assay [9] it was > 300 µM (not active); in assay [10], 41.9 µM (inconclusive); in assay [11] it was > 99 µM (inactive).
`C1COCCO1.Cc1cc(C)c2nc(Nc3nc(O)cc(-c4ccccc4)n3)nc(C)c2c1`: the EC50 at Melanocortin receptor 4 is > 89.2 µM (inactive).
Still for that read-out and setting: under `O=C(c1ccc(COc2ccc(Br)cc2)o1)N1N=C(C(F)F)CC1(O)C(F)F` (configuration not stated) stands > 89.2 µM (inactive).
`CC(C)Oc1ccc(/C=C(\NC(=O)/C=C/c2ccco2)C(=O)NCCc2nc3ccccc3[nH]2)cc1`: the IC50 in assay [6] is 57.5 µM (active); in assay [7], > 100 µM (inactive); at Prothrombin it was 55.6 µM (active).
As to `CCOc1ccc(C(=O)CCC(=O)N2CCN(c3ncccn3)CC2)cc1`, the IC50 in [6] is 38.6 µM (active); in [7], 83.5 µM (active); at Prothrombin it was 34.3 µM (active).
For `COc1ccc(-c2cc(NC(C)=O)c3ncc(-c4ccc(OC)c(OC)c4)n3c2)cc1OC`, in the assay with H9c2, the IC50 is > 79 µM (inactive). Moreover, on Melanocortin receptor 4, the EC50 was > 89.2 µM (inactive).
Take `Cc1cccnc1C(c1ccc(F)cc1)N(C)C(=O)C1CCN(CCOc2ccc(Cl)cc2Cl)CC1` (configuration not stated): the EC50 at Melanocortin receptor 4 is > 89.2 µM (inactive).
Turning to `COc1ccc(-c2ccc(/C=C3/C(=N)N4C(C)=CSC4=NC3=O)o2)c([N+](=O)[O-])c1`, the IC50 on Protein skinhead-1 is > 100 µM (inactive). Further, the EC50 was > 99 µM (inactive) in assay [8] and 29 µM (inactive) in [11].
Take `Cc1cccc(NC(=S)NC(=O)C(c2ccccc2)c2ccccc2)n1`: the EC50 on Melanocortin receptor 4 is > 89.2 µM (inactive).
On to `COCc1n[nH]c2c1C(c1cc(OC)c(O)c(OC)c1)C(C#N)=C(N)O2` (configuration not stated), for which the half-maximal inhibitory concentration (IC50) in [12] is > 50 µM (not active). In addition, the EC50 in assay [8] and in [11] was > 99 µM (inactive) each time.
